Source: patent US7754896B2, “Indol-alanine derivatives as selective S1P4-agonists” (Novartis AG, priority 2004, dated 2010)

Legend:
S1P2 [1] = target: T1, S1P2 (Homo sapiens, UniProt O95136); assay: Calcium mobilization assay, CHO cells expressing S1P2; assay type: cell-based
T1 construct: expressed in transfected cells
From the text: (§1) Human S1P1 (GenBank™ accession number M31210) and S1P3 (GenBank™ accession number X83864) cDNA containing the myc sequence in front to the human S1P1 and S1P3 sequences are inserted in the pcDNA 3.1 vector. The vectors are sequenced to completion to confirm the correctness of the construct. The human S1P2 (GI: 4090955, TREMBL: 0195136) is cloned by a PCR based method. Lung cDNA (marathon cDNA) is obtained (BD Biosciences Chontech, Palo Alto, Calif. 94303, USA). […] The amplified product of around 1100 bp is analyzed by standard agarose gel-electrophoresis. […]
CHO cells are plated in black Costar plate (96 or 384 well, 50,000 cells or 12,500 cells, respectively) in a MEM with FCS and cultured for 20-24 h at 37° C. in a CO2 incubator. […] After measuring the baseline for 40 sec, the agonist in HBSS is added and the fluorescence is measured at intervals of 2 sec for 3 to 5 min. […]
The compounds mentioned in this application are tested for specificity, e.g. the activity they have in the parental cell line prior transformation with the S1P4 cDNA and for selectivity on CHO cells lines transformed with the S1P1, S1P2, S1P3, and S1P5. […] For example, S1P4 specific and selective compounds may have an EC50 (apparent EC50) measured at S1P4 that is 10×, preferably 100× lower that that measured in wild type CHO cells or In cell expressing any of the other four S1P receptors.

S1P2 [2] = target: T1, S1P2; assay: GTPγS binding assay, S1P2; assay type: biochemical; conditions: CHO cells expressing S1P2
From the text: as §1, with “USA). Following oligonucleotides are used for the PCR reaction: forward primer CACCATGGGCAGCTTGTACTCGGAGTACCT GM CCC CAA CM GGT CCA G (1 to 45, GenBank™ accession number AF034780) and reverse primer 5′-GATTCAGACCACCGTGTTGCCCTCCAG (1062 to 1039, GenBank™ accession number AF034780), the initiation of the translation (ATG) and the stop codon are underlined.” for “USA).”
Membrane proteins are prepared from wild type CHO-K1 and the CHO cell clones expressing human S1P4. […] The protein concentration is determined using the Bio Rad Protein Assay and human IgG as standard. […]

T1 sequence (O95136 whole entry): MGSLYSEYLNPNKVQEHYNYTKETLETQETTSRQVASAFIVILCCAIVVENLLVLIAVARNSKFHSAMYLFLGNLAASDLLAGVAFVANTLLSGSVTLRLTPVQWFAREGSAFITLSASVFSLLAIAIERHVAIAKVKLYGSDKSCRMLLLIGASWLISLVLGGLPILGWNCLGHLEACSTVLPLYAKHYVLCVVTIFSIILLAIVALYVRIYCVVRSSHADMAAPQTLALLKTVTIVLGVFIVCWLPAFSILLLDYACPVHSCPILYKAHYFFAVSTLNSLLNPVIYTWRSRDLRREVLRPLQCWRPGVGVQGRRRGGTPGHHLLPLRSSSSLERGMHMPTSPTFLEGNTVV

For `NC(CNC(=O)c1cc2c(-c3ccccc3Cc3ccccc3)cccc2[nH]1)C(=O)O` (centres unmarked) [Example 2], the EC50 (S1P2 [1]) was greater than 6 µM and the EC50 (S1P2 [2]) was greater than 10 µM.
